This note sets out measurements from article PMC4792576, “Formononetin, a novel FGFR2 inhibitor, potently inhibits angiogenesis and tumor growth in preclinical models” (Oncotarget, 2015).

In one experiment the target is T1, FGFR2 (Homo sapiens, UniProt P21802).
T1 construct: kinase domains of FGFR2
In words: in vitro FGFR2 kinase assay (CycLex kit / Z'-lyte FRET), dose response; radiometric panel […] at […]. It is filed as biochemical.

Another experiment has as its target FGFR1 (Homo sapiens, UniProt P11362). Put plainly: radiometric kinase panel (Millipore), single concentration […]. Particulars: read-out: Inhibition rate at 1 μM (%). It is filed as biochemical.

T1 sequence (P21802 458-768 limits assumed): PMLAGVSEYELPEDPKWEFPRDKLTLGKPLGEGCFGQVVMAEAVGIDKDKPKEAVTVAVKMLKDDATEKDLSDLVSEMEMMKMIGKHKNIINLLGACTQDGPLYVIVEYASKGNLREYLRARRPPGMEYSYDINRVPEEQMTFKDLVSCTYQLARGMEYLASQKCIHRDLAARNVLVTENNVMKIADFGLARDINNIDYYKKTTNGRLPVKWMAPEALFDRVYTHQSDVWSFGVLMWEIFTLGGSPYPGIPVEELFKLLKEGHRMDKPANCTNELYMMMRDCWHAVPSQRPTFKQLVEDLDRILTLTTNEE
Chain of FGFR1 (P11362 22-822): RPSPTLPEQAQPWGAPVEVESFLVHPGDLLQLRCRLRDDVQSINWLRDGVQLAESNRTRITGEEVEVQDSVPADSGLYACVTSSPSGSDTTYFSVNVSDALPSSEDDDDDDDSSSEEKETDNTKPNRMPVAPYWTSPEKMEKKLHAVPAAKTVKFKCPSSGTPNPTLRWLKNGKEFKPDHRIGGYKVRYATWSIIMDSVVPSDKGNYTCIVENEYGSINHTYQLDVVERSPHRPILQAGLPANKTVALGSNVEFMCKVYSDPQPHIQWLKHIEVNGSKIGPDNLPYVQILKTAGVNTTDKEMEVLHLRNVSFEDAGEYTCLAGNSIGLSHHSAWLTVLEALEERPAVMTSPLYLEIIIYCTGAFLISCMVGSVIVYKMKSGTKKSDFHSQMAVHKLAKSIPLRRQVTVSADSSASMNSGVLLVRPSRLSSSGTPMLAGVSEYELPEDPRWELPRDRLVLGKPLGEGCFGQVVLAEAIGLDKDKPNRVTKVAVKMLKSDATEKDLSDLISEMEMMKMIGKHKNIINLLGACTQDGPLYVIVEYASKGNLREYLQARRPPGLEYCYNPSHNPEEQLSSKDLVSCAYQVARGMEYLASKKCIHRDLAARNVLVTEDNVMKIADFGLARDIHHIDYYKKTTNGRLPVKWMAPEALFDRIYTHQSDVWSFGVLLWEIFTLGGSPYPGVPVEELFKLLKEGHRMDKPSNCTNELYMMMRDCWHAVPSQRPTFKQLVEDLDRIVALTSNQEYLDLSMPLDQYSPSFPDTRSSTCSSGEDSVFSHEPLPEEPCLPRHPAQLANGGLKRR

For orientation: IC50 means the concentration that gives 50% inhibition. Higher therefore signals lower potency. By inhibition is commonly meant the percentage by which the read-out fell short of the control. Compound `COc1ccc(-c2coc3cc(O)ccc3c2=O)cc1` [formononetin] had an IC50 against FGFR2 of roughly 4.31 µM. The inhibition at 1 µM on FGFR1 worked out at 57 ± 4%.
